Data from patent publication US20240366632A1, “METHODS FOR THE TREATMENT OF OCULAR ROSACEA” (INSTITUT NATIONAL DE LA SANTÉ ET DE LA RECHERCHE MÉDICALE, priority 2021, published 2024).

Experiments:
GR/MR balance = experiment: GR and MR expression in the cornea/limbus of rats with limbal deficiency; assay type: in vivo, rat
Source text: FIG. 4. Spironolactone up-regulates GR and the GR/MR balance in favor of GR pathway activation. The corneal de-epithelialization and limbal deficiency model induces a down regulation of GR genes at day 3 and 7, and is restored at day 14 when the cornea is healed. […] Spironolactone normalizes the GR/MR balance, favoring GR pathway activation.
Thus, spironolactone normalizes the GR/MR balance, favoring GR pathway activation.

[1] = test system: corneal neovascularization induced by limbal deficiency; experiment: rat model of CN induced by de-epithelialization and limbal resection; assay type: in vivo; conditions: for corneal edema / corneal neovascularization / corneal re-epithelialization / corneal thickness: rat, limbal deficiency
Source text: FIG. 1. Corneal de-epthelialization and limbal resection model treatment schemes.
Corneal neovascularization (CN) is a severe vision-threatening complication of OR.

[2] = test system: genes regulated in the cornea and limbus; experiment: full transcriptomic regulation in the cornea and limbus; assay type: in vivo, rat; conditions: cornea and limbus at 3 and 7 days
Source text: A full transcriptomic regulation induced in the cornea and limbus at 3 and 7 days after spironolactone systemic injection alone or with TA has been realized.

SMILES | GR expression in the cornea (GR/MR balance; day 3 and 7) | MR expression (GR/MR balance; rat, in vivo) | infiltration of ED1 positive inflammatory cells in corneal lesions ([1]; corneal sections at day 3) | infiltration of IBA1-positive macrophages in corneal lesions ([1]; corneal sections at day 3) | corneal edema [1] | corneal neovascularization [1] | corneal re-epithelialization [1] | corneal thickness [1] | corneal re-epithelialization (corneal wound) delayed by the TA injection ([1]; spironolactone given with TA injection) | genes up or down regulated [2] [genes]
CC(=O)S[C@@H]1CC2=CC(=O)CC[C@]2(C)[C@H]2CC[C@@]3(C)[C@@H](CC[C@@]34CCC(=O)O4)[C@H]12 [spironolactone, 17-hydroxy-7α-mercapto-3-oxo-17α-pregn-4-ene-21-carboxylic acid γ-lactone acetate] | up regulates and normalizes | does not influence | reduced infiltration | reduced infiltration | decrease | inhibited | improved | decrease | improved | 75
COC(=O)[C@@H]1CC2=CC(=O)CC[C@]2(C)[C@@]23O[C@@H]2C[C@@]2(C)[C@@H](CC[C@@]24CCC(=O)O4)[C@H]13 [eplerenone, Pregn-4-ene-7,21-dicarboxylic acid, 9,11-epoxy-17-hydroxy-3-oxo-,γ-lactone, methyl ester, (7α, 11α, 17β)] | – | – | – | – | decrease | inhibited | improved | decrease | – | –
